From patent publication US20240051952A1, “HMOX1 INDUCERS” (Mitobridge Inc., priority 2019, published 2024)
Entries after “also recorded” stand apart in the source; their conditions may differ.

Experiments:
HbSS Townes sickle mice = experiment: F-cells in HbSS Townes sickle mice; assay type: in vivo, mouse
Excerpt: Blood smears were made using heparinized whole blood for F-cells staining. Stained F-cells and total red blood cells were counted on the blood smears in four fields; mean=77 red blood cells/field. F-cells are expressed as a percentage of total red blood cells. Values are means+SD. One-Way ANOVA with Dunnett's Multiple comparison to Vehicle **p≤0.01, ***p≤0.001, ****p≤0.0001
Dosing Scheme of HMOX Inducers to HbSS Townes Sickle Mice
HbSS Townes sickle mice were oral gavaged once daily with Vehicle or the compound of Example 17 listed below for 8 days. To minimize experimental inconsistency, fresh formulation was prepared every day and vortexed prior to drawing test article into syringe for each dosing, and dosing was performed by the same individual throughout the day. The last-day dose was administered by oral gavage 4 hours prior to hemin infusion described below. • 1. […]
F-cells were stained on whole blood smears by the Kleihauer-Betke method using a fetal cell stain kit (Simmler) according to the manufacturer's instructions. F-cells and total erythrocytes were counted in 4 separate microscopic fields at 100× magnification for each mouse. The F-cells were expressed as a percentage of total erythrocytes (i.e., red blood cells). […]

Heme Oxygenase 1 (HO1) = experiment: PD study, HMOX1 protein levels in mouse plasma and liver (ELISA); assay type: in vivo; details: HMOX1 protein fold induction vs time-matched vehicle, 50 mpk oral
Description: 9-10 week old male C57BL/6 mice were dosed orally with 50 mg/kg of vehicle or compound formulated in 5% w/v tween 80 and 0.5% methyl cellulose. At indicated time points (3 and 6 hours or or 4 and 8 hours post-dosing as shown in the results below), whole blood was collected, animal was sacrificed and liver was collected. Blood samples were transferred to vials containing 4 μL of 10% w/v EDTA, centrifuged at 6000 rpm for 8 in below 10° C. to obtain plasma. Samples were frozen and later processed for HMOX1 protein levels as indicated below:
HMOX 1 Protein Levels: Mouse Liver
Preparation of Homogenization/Lysis Buffer
The homogenization buffer was prepared according Table A.
Immediately prior to use, add DTT (ThermoScientific #R0861) to a final concentration of 5 mM and 100×Halt Protease & Phosphatase Inhibitor Cocktail (ThermoScientific #78440) to a final concentration of 1×.
Preparation of Mouse Liver Samples
Liver samples were crushed by mortar and pestle under freezing conditions. Pulverized tissue was transferred into pre-chilled bead ruptor OMNI tubes (OMNI International, Cat #19-628). 1 mL of homogenization buffer (+DTT and HALT) was added to pulverized tissue and tubes were placed on ice. Samples were loaded and run through bead ruptor at speed 5.64 m/s, for two 20 sec cycles with 10 sec dwell between cycles and samples were immediately returned to ice. All material was transferred to a new chilled 2 mL Eppendorf tube. Samples were centrifuged for 5 minutes at 2,000 rpm at 4° C. Supernatant was transferred to a fresh chilled 1.7 mL Eppendorf tube. Samples were centrifuged for 5 minutes at 2,000 rpm at 4° C. The supernatant, consisting of cytosol and microsomes, was transferred to a fresh chilled 1.7 mL Eppendorf tube. Samples were stored at −80° C. Microsome samples were quantitated using Pierce 660 Assay (ThermoFisher Cat #22660) with pre-diluted BSA standards (ThermoFisher Cat #23208) ranging from 125-2000 μg/mL. Each sample was diluted to 10ng/ul for an ELISA input of 0.5ug in 50ul.
Preparation of Assay Reagents
All assay reagents were provided in the Heme Oxygenase 1 (HO1) Mouse SimpleStep ELISA Kit (Abcam #ab204524). Prior to use, all reagents were equilibrated to room temperature. 1×Wash Buffer PT was prepared by diluting 10×Wash Buffer PT 1:10 with deionized water. Antibody cocktail was prepared by diluting the 10×Capture Antibody and 10×Detector Antibody to 1×in Antibody Diluent 5BI. Mouse heme oxygenase 1 protein standard was reconstituted using 500ul homogenization buffer (Table A), mixed and held at room temperature for 10 minutes prior to dilution. An eight point standard curve was generated by diluting the Stock Standard 1:2 for standard curve ranging from 10,000-156.3 pg/mL.
Heme Oxygenase 1 (HO1) Mouse SimpleStep ELISA
50ul of all samples and standards were added to appropriate wells in duplicate. 50ul of 1×Antibody Cocktail was added to each well. The plate was sealed with provided seal and incubated at room temperature on a plate shaker at 400 rpm. After one hour incubation, the Antibody Cocktail was aspirated and the wells were washed three times with 350ul 1×Wash Buffer PT, aspirating completely between each step. After the last wash was aspirated dry, 100ul TMB Substrate was added to each well and the plate was incubated in the dark at room temperature for 10 minutes on a plate shaker at 400 rpm. After the 10 minute incubation, 100ul of Stop Solution was added to each well. Plate was shaken at 400 rpm for 1 minute to mix. Softmax Pro 7.0.3 was used to read OD at 450 nm as well as for analysis.
Heme Oxygenase 1 Protein Levels in Mouse Plasma
All assay reagents were provided in the Heme Oxygenase 1 (HO1) Mouse SimpleStep ELISA Kit (Abcam #ab204524). 1×Wash Buffer PT was prepared by diluting 10×Wash Buffer PT 1:10 with deionized water. Antibody cocktail was prepared by diluting the 10×Capture Antibody and 10×Detector Antibody to 1×in Antibody Diluent 5BI. […]

Cn1c(Nc2nc3ccccc3o2)nc2cc(C(=O)NCCOCCO)ccc21 [Example 17, 2-(benzo[d]oxazol-2-ylamino)-N-(2-(2-hydroxyethoxy)ethyl)-1-methyl-1H-benzo[d]imidazole-5-carboxamide]
percent F-cells vs vehicle (HbSS Townes sickle mice; 10, 25, 50 mg/kg PO once daily 8 days): significantly increased; also recorded: percentage of F-cells increase
percent F-cells (HbSS Townes sickle mice; all doses tested (10, 25, 50 mg/kg PO, 8 days), % of total red blood cells): 55-70%
Liver Protein (4 h) (Heme Oxygenase 1 (HO1); mouse liver, 4 hours (Study 702)): 3.3x*
Liver Protein (8 h) (Heme Oxygenase 1 (HO1); mouse liver, 8 hours (Study 702)): 3.1x*
Plasma Protein (4 h) (Heme Oxygenase 1 (HO1); mouse plasma, 4 hours (Study 702)): 1.7x*
Plasma Protein (8 h) (Heme Oxygenase 1 (HO1); mouse plasma, 8 hours (Study 702)): 1.1x*
